Measured values reported in patent US7417156B2, “Orally active, antimalarial, anticancer, artemisinin-derived trioxane dimers” (Johns Hopkins University, priority 2002, dated 2008).
Where two headings read alike, the source gives them in different places.

Columns and labels:
[1] = system: MOLT-4; details: for Log10GI50: Leukemia, MOLT-4; for Log10LC50 / Log10TGI50: MOLT-4 (Leukemia); for Log10LC50: LC50: PG=−50; for Log10TGI50: TGI: PG=0
Procedure: Growth Inhibition. […] The screening assay is performed on 96-well microtitre plates. Relatively high initial inoculation densities are used, in order to permit measurement of “time-zero” values and to enhance the screen's ability to detect and provide some differentiation between growth inhibition and cytotoxic response parameters. […] The inoculated microtitre plates are pre-incubated for 24 hours at 37° C. prior to drug additions. The five drug dilutions tested routinely range from 10^−4 to 10^−8 molar. Higher or lower concentration ranges may be selected on a non-routine basis if appropriate solubility and/or prior biological information or other screening data so dictate. Duplicate wells are prepared for all concentrations, (concentration is often denoted by placing brackets around a number); “time-zero” and “no drug” controls are also provided for each test. The minimum amount of compound required for a one-time evaluation in the routine screen can be calculated from the knowledge that each test requires a total of approximately 40 ml (0.04 liter) of cell culture medium containing the highest desired drug concentration. […] After a 48 hour incubation (37° C.) with the test compound, the cells are fixed in situ to the bottoms of the microtitre wells by addition of 50 μl of either 50% trichloroacetic acid (for adherent cell lines) or 80% trichloroacetic acid (for settled cell suspension lines), followed by incubation for 60 minutes at 4° C. The cellular protein in each well is assayed using a sulforhodamine B (SRB) stain procedure. Briefly, after discarding the supernatants, the microtitre plates are washed 5 times with deionized water and air-dried. […] Unbound SRB is removed by washing 5 times with 1% acetic acid. […] SRB is a bright pink anionic dye which, in dilute acetic acid, binds electrostatically to the basic amino acids of TCA-fixed cells. Cryopreserved master stocks of all the lines are maintained, and cultures used for screening are replaced from the master stock after no more than twenty passages in the screening laboratory. The cell line panel consists of 60 lines, organized into nine, disease-related subpanels including leukemia, non-small-cell lung cancer, colon, CNS, melanoma, ovarian, renal, prostate and breast cancers.
At this value the increase from time tzero, in the number or mass of cells in the test well is only 50% as much as the corresponding increase in the control well during this period of the experiment, see Table III. A drug effect of this intensity is interpreted as primary growth inhibition.
At this value the number or mass of cells in the well at the end of the experiment equals the number or mass of cells in the well at time tzero, see Table IV. A drug effect of this intensity is regarded as cytostasis.
At this value, the number or mass of cells in the test well at the end of the experiment is half that at time tzero, see Table V. This is interpreted as cytotoxicity.
Dose response curves, shown in the above mentioned Figures, are obtained by exposing various cancer cell lines to compounds having a known concentration ([log10M]), as discussed in detail above, and then plotting the percentage growth of each cell line for each concentration. […] Percentage growth is determined by dividing the number or mass of cells in the test well by the number or mass of cells in a control well. […] As discussed previously, the five drug dilutions routinely tested range from 10^−4 to […].

[2] = system: SR; experiment: NCI 60 cell line panel screen (SRB); format: cell-based, human
[3] = system: NCI-H226; experiment: NCI 60 cell line panel screen (SRB); format: cell-based, human; details: for Log10LC50 / Log10TGI50: NCI-H226 (Non-Small Cell Lung Cancer); for Log10LC50: LC50: PG=−50; for Log10TGI50: TGI: PG=0; for Log10GI50: Non-Small Cell Lung Cancer, NCI-H226
[4] = system: HCC-2998; experiment: NCI 60 cell line panel screen (SRB); format: cell-based, human; details: for Log10LC50 / Log10TGI50: HCC-2998 (Colon Cancer); for Log10LC50: LC50: PG=−50; for Log10TGI50: TGI: PG=0
[5] = system: SW-620; experiment: NCI 60 cell line panel screen (SRB); format: cell-based, human; details: for Log10GI50: Colon Cancer, SW-620; for Log10LC50 / Log10TGI50: SW-620 (Colon Cancer); for Log10LC50: LC50: PG=−50; for Log10TGI50: TGI: PG=0
[6] = system: SK-MEL-5; experiment: NCI 60 cell line panel screen (SRB); format: cell-based, human; details: for Log10GI50: Melanoma, SK-MEL-5; for Log10TGI50: TGI: PG=0
[7] = system: UACC-62; experiment: NCI 60 cell line panel screen (SRB); format: cell-based, human; details: for Log10GI50: Melanoma, UACC-62; for Log10LC50 / Log10TGI50: UACC-62 (Melanoma); for Log10LC50: LC50: PG=−50; for Log10TGI50: TGI: PG=0
[8] = system: A498; experiment: NCI 60 cell line panel screen (SRB); format: cell-based, human; details: for Log10LC50 / Log10TGI50: A498 (Renal Cancer); for Log10LC50: LC50: PG=−50; for Log10TGI50: TGI: PG=0; for Log10GI50: Renal Cancer, A498
[9] = system: SN12C; experiment: NCI 60 cell line panel screen (SRB); format: cell-based, human; details: for Log10GI50: Renal Cancer, SN12C; for Log10LC50 / Log10TGI50: SN12C (Renal Cancer); for Log10LC50: LC50: PG=−50; for Log10TGI50: TGI: PG=0
[10] = system: UO-31; experiment: NCI 60 cell line panel screen (SRB); format: cell-based, human; details: for Log10GI50: Renal Cancer, UO-31; for Log10LC50 / Log10TGI50: UO-31 (Renal Cancer); for Log10LC50: LC50: PG=−50; for Log10TGI50: TGI: PG=0
[11] = system: MDA-N; experiment: NCI 60 cell line panel screen (SRB); format: cell-based, human; details: for Log10GI50: Breast Cancer, MDA-N
[12] = system: P. berghei NY malaria parasite; experiment: Antimalarial efficacies in vivo in mice
Source text: Neither overt toxicity nor behavioral modification was observed due to drug administration in any of these mouse experiments.

[13] = system: malaria parasite; experiment: Efficacy Study Blood Schizontocidal Activity; format: in vivo; design: ED90: unit not given here
[14] = system: SF-295; experiment: NCI 60 cell line panel screen (SRB); format: cell-based, human
[15] = system: LOX IMVI; experiment: NCI 60 cell line panel screen (SRB); format: cell-based, human
[16] = system: OVCAR-4; experiment: NCI 60 cell line panel screen (SRB); format: cell-based, human
[17] = system: DU-145; experiment: NCI 60 cell line panel screen (SRB); format: cell-based, human

C[C@@H]1CC[C@H]2[C@@H](C)C(=O)O[C@@H]3O[C@]4(C)CC[C@@H]1[C@]32OO4 [Artemisinin]
Log10GI50 [1]: −4.73 | Log10LC50 [1]: >−4.00 log10M | Log10TGI50 [1]: >−4.00 log10M | concentration for cytotoxicity (percentage growth −50) ([1]; human, 48 h): greater than 10^−4 M | Log10GI50 ([2]; Leukemia, SR): >−4.00 | Log10LC50 ([2]; SR (Leukemia), LC50: PG=−50): >−4.00 log10M | Log10TGI50 ([2]; SR (Leukemia), TGI: PG=0): >−4.00 log10M | Log10LC50 [3]: >−4.00 log10M | Log10TGI50 [3]: >−4.00 log10M | Log10GI50 [3]: >−4.00 | Log10GI50 ([4]; Colon Cancer, HCC-2998): >−4.00 | Log10LC50 [4]: >−4.00 log10M | Log10TGI50 [4]: >−4.00 log10M | Log10GI50 [5]: >−4.00 | Log10LC50 [5]: >−4.00 log10M | Log10TGI50 [5]: >−4.00 log10M | Log10GI50 [6]: >−4.10 | Log10TGI50 ([6]; SK-MEL-5 (Melanoma)): >−4.00 log10M | Log10GI50 [7]: >−4.00 | Log10LC50 [7]: >−4.00 log10M | Log10TGI50 [7]: >−4.00 log10M | Log10LC50 [8]: >−4.00 log10M | Log10TGI50 [8]: >−4.00 log10M | Log10GI50 [8]: >−4.00 | Log10GI50 [9]: −4.21 | Log10LC50 [9]: >−4.00 log10M | Log10TGI50 [9]: >−4.00 log10M | Log10GI50 [10]: −4.06 | Log10LC50 [10]: >−4.00 log10M | Log10TGI50 [10]: >−4.00 log10M | Log10GI50 [11]: >−4.00 | Log10LC50 ([11]; MDA-N (Breast Cancer), LC50: PG=−50): >−4.00 log10M | Log10TGI50 ([11]; MDA-N (Breast Cancer), TGI: PG=0): >−4.00 log10M

CC1CCC2C(C)C(CC(COC(=O)CCC(=O)O)CC3OC4OC5(C)CCC6C(C)CCC(C3C)C46OO5)OC3OC4(C)CCC1C32OO4 (centres unmarked) [Compound 8a, bis-trioxane primary succinate monoester]
ED50 ([12]; route IV): 2.2 mg/kg × 4 | ED90 ([12]; route IV): 6.3 mg/kg × 4 | % Parasite Supression at 10 mg/kg ([12]; route IV): 81.0% | ED50 ([12]; route PO): 9.0 mg/kg × 4 | ED90 ([12]; route PO): 15.0 mg/kg × 4 | % Parasite Supression at 10 mg/kg ([12]; route PO): 79.2% | concentration for cytotoxicity (percentage growth −50) [1]: greater than 10^−4 M | Log10GI50 [1]: −8.18 | Log10LC50 [1]: >−4.30 log10M | Log10TGI50 [1]: >−4.30 log10M | Log10LC50 [3]: >−4.30 log10M | Log10TGI50 [3]: −6.67 log10M | Log10GI50 [3]: <−8.30 | Log10GI50 [10]: −5.46 | Log10LC50 [10]: >−4.30 log10M | Log10TGI50 [10]: >−4.30 log10M | Log10GI50 [11]: −7.29

CC1CCC2C(C)C(CC(COC(=O)c3cc[n+]([O-])cc3)CC3OC4OC5(C)CCC6C(C)CCC(C3C)C46OO5)OC3OC4(C)CCC1C32OO4 (centres unmarked) [Compound 13, bis-trioxane primary alcohol isonicotinate N-oxide]
ED50 ([13]; Route: IV): 0.55 mg/kg | ED90 ([13]; Route: IV): 2.0 | ED50 ([13]; Route: PO): 4 mg/kg | ED90 ([13]; Route: PO): 9.0 | efficacy relative to sodium artesunate in words ([13]; orally and i.v.): more efficacious | Log10LC50 [4]: −4.55 log10M | Log10TGI50 [4]: −4.91 log10M | Log10GI50 [5]: <−8.30 | Log10LC50 [5]: −4.53 log10M | Log10TGI50 [5]: −5.05 log10M | Log10GI50 ([14]; CNS Cancer, SF-295): −5.21 | Log10LC50 ([14]; SF-295 (CNS Cancer), LC50: PG=−50): −4.33 log10M | Log10TGI50 ([14]; SF-295 (CNS Cancer), TGI: PG=0): −4.77 log10M | Log10LC50 ([15]; LOX IMVI (Melanoma), LC50: PG=−50): −5.78 log10M | Log10TGI50 ([15]; LOX IMVI (Melanoma), TGI: PG=0): <−8.30 log10M | Log10GI50 ([15]; Melanoma, LOX IMVI): <−8.30 | Log10GI50 [6]: <−8.30 | Log10LC50 ([6]; SK-MEL-5 (Melanoma), LC50: PG=−50): −4.73 log10M | Log10TGI50 ([6]; SK-MEL-5 (Melanoma)): −5.28 log10M | Log10GI50 [7]: −8.00 | Log10LC50 [7]: −4.66 log10M | Log10TGI50 [7]: −5.07 log10M | Log10LC50 ([16]; OVCAR-4 (Ovarian Cancer), LC50: PG=−50): −4.42 log10M | Log10TGI50 ([16]; OVCAR-4 (Ovarian Cancer), TGI: PG=0): −4.93 log10M | Log10GI50 ([16]; Ovarian Cancer, OVCAR-4): <−8.30 | Log10LC50 [8]: −4.74 log10M | Log10TGI50 [8]: −5.31 log10M | Log10GI50 [8]: −6.97 | Log10GI50 [9]: <−8.30 | Log10LC50 [9]: −4.72 log10M | Log10TGI50 [9]: −5.29 log10M | Log10GI50 [10]: <−8.30 | Log10LC50 [10]: >−4.30 log10M | Log10TGI50 [10]: −5.10 log10M | Log10TGI50 ([17]; DU-145 (Prostate Cancer), TGI: PG=0): −5.00 log10M | Log10GI50 ([17]; Prostate Cancer, DU-145): −7.48
